The test concerns the target HIV-1 PR (Human immunodeficiency virus type 1 group M subtype B, UniProt P04585). Description: HIV-protease inhibitory activity assay (FRET peptide substrate). The format is biochemical. The note with it: Test Example 1. The procedure, abridged: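 Inhibition of HIV-1 protease was measured as loss of fluorescence dequenching of a HiLyte Fluor 488/QXL 520 peptide at 2 μmol/L, pH 4.8, room temperature, 60 minute reaction. IC50 was derived by nonlinear four-parameter fitting.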
`COc1ccc(S(=O)(=O)N(CC(C)C)CC(O)C(Cc2ccc(N(C)Cc3nc(N4CCOCC4)sc3-c3sc4c(c3C(=O)O)CC(C)(C)CC4)cc2)NC(=O)OC2COC3(C)OCCC23)cc1` (stereo not shown) [Compound I-757] gave an IC50 of 3.02 nM.

For `COc1ccc(S(=O)(=O)N(CC(C)C)CC(O)C(Cc2ccc(N(C)Cc3nc(N4CCN(C)CC4)sc3-c3sc4c(c3C(=O)O)CC(C)(C)CC4)cc2)NC(=O)OC2COC3(C)OCCC23)cc1` (stereo not shown) [Compound I-758], the midpoint of inhibition, the IC50, lay at 1.62 nM.

In turn, `COc1ccc(S(=O)(=O)N(CC(C)C)CC(O)C(Cc2ccc(NCc3cc4c(cc3-c3sc5c(c3C(=O)O)CC(C)(C)CC5)OCC(=O)N4C)cc2)NC(=O)OC2COC3(C)OCCC23)cc1` (stereo not shown) [Compound I-759] returned a 50% inhibitory concentration (IC50) of 2.55 nM.

`COc1ccc(S(=O)(=O)N(CC(C)C)CC(O)C(Cc2ccc(NCc3nc(N(C4CCCCC4)C4CCCCC4)sc3-c3sc4c(c3C(=O)O)CC(C)(C)CC4)cc2)NC(=O)OC2COC3(C)OCCC23)cc1` (stereo not shown) [Compound I-760] yielded an IC50 of 3.38 nM.

Regarding `COc1ccc(S(=O)(=O)N(CC(C)C)CC(O)C(Cc2ccc(N(C)Cc3nc(N(C4CCCCC4)C4CCCCC4)sc3-c3sc4c(c3C(=O)O)CC(C)(C)CC4)cc2)NC(=O)OC2COC3(C)OCCC23)cc1` (stereo not shown) [Compound I-761], the IC50 was 6.76 nM.

`COc1ccc(S(=O)(=O)N(CC(C)C)CC(O)C(Cc2ccc(N(C)Cc3cc(OC)ccc3C(=O)Nc3sc4c(c3C(=O)O)CC(C)(C)CC4)cc2)NC(=O)OC2COC3(C)OCCC23)cc1` (stereo not shown) [Compound I-762] displayed an IC50 of 6.23 nM.

For the molecule `CCCCCCCCCCCCCC(=O)Nc1ccc(CNc2ccc(CC(NC(=O)OC3COC4(C)OCCC34)C(O)CN(CC(C)C)S(=O)(=O)c3ccc(OC)cc3)cc2)c(-c2sc3c(c2C(=O)O)CC(C)(C)CC3)c1` (stereo not shown) [Compound I-763], the concentration for half-maximal inhibition (IC50) was 3.07 nM.

For the molecule `COc1ccc(S(=O)(=O)N(CC(C)C)CC(O)C(Cc2ccc(NCC3CC(C)(C)CCC3c3sc4c(c3C(=O)O)CC(C)(C)CC4)cc2)NC(=O)OC2COC3(C)OCCC23)cc1` (stereo not shown) [Compound I-764], the 50% inhibitory concentration (IC50) worked out at 2.81 nM.

On to `COc1ccc(S(=O)(=O)N(CC(C)C)CC(O)C(Cc2ccc(NCC3CC(C)(C)CCC3c3sc4c(c3C(=O)O)CC(C)(C)CC4)cc2)NC(=O)OC2COC3(C)OCCC23)cc1` (stereo not shown) [Compound I-765], for which the IC50 came out at 2.96 nM.

As to `COc1ccc(S(=O)(=O)N(CC(C)C)CC(O)C(Cc2ccc(NCc3ccccc3-c3cnc(-c4sc5c(c4C(=O)O)CC(C)(C)CC5)s3)cc2)NC(=O)OC2COC3(C)OCCC23)cc1` (stereo not shown) [Compound I-766], the IC50 was determined as 3.28 nM.

`COc1ccc(S(=O)(=O)N(CC(C)C)CC(O)C(Cc2ccc(N(C)Cc3cc4c(cc3-c3sc5c(c3C(=O)O)CC(C)(C)CC5)OCC(=O)N4C)cc2)NC(=O)OC2COC3(C)OCCC23)cc1` (stereo not shown) [Compound I-768] returned an IC50 of 2.95 nM.

For the molecule `COc1ccc(S(=O)(=O)N(CC(C)C)CC(O)C(Cc2ccc(N(C)CC3CC(C)(C)CCC3c3sc4c(c3C(=O)O)CC(C)(C)CC4)cc2)NC(=O)OC2COC3(C)OCCC23)cc1` (stereo not shown) [Compound I-769], half-maximal inhibition (IC50) was put at 5.98 nM.

Consider `COc1ccc(S(=O)(=O)N(CC(C)C)CC(O)C(Cc2ccc(N(C)CC3CC(C)(C)CCC3c3sc4c(c3C(=O)O)CC(C)(C)CC4)cc2)NC(=O)OC2COC3(C)OCCC23)cc1` (stereo not shown) [Compound I-770], for which the IC50 turned out to be 5.56 nM.

For `COc1ccc(S(=O)(=O)N(CC(C)C)CC(O)C(Cc2ccc(N3Cc4nc5ccccc5cc4C3=O)cc2)NC(=O)OC2COC3(C)OCCC23)cc1` (stereo not shown) [Compound I-771], the midpoint of inhibition, the IC50, lay at 2 nM.

In the case of `COc1ccc(S(=O)(=O)N(CC(C)C)CC(O)C(Cc2ccc(N(C)Cc3ccccc3-c3ccc(NC(=O)CC4CC(C)(C)CCC4=O)cc3)cc2)NC(=O)OC2COC3(C)OCCC23)cc1` (stereo not shown) [Compound I-772], the IC50 came to 21 nM.

The molecule `COc1ccc(S(=O)(=O)N(CC(C)C)CC(O)C(Cc2ccc(NCc3nc4ccccc4cc3C(=O)Nc3sc4c(c3C(=O)O)CC(C)(C)CC4)cc2)NC(=O)OC2COC3(C)OCCC23)cc1` (stereo not shown) [Compound I-774] came in with an IC50 of 6.26 nM.

In turn, `COc1ccc(S(=O)(=O)N(CC(C)C)CC(O)C(Cc2ccc(NCc3ccccc3-c3ccc(Nc4sc5c(c4C(=O)O)CC(C)(C)CC5)nc3)cc2)NC(=O)OC2COC3(C)OCCC23)cc1` (stereo not shown) [Compound I-775] displayed a half-maximal inhibitory concentration (IC50) of 3.64 nM.

For `COc1ccc(S(=O)(=O)N(CC(C)C)CC(O)C(Cc2ccc(N(C)Cc3ccccc3-c3ccc(Nc4sc5c(c4C(=O)O)CC(C)(C)CC5)nc3)cc2)NC(=O)OC2COC3(C)OCCC23)cc1` (stereo not shown) [Compound I-776], the half-inhibitory concentration (IC50) came out at 6.4 nM.

Take `COc1ccc(S(=O)(=O)N(CC(C)C)CC(O)C(Cc2ccc(NCc3ccccc3NC(=O)Nc3sc4c(c3C(=O)O)CC(C)(C)CC4)cc2)NC(=O)OC2COC3(C)OCCC23)cc1` (stereo not shown) [Compound I-779]: it took 2.74 nM to reach half-maximal inhibition (IC50).

The molecule `COc1ccc(S(=O)(=O)N(CC(C)C)CC(O)C(Cc2ccc(OCc3ccccc3-c3sc4c(c3C(=O)O)CC(C)(C)CC4)cc2)NC(=O)OC2COC3(COC(=O)NCc4ccc(F)cc4)OCCC23)cc1` (stereo not shown) [Compound I-784] had a half-inhibitory concentration (IC50) of 7.3 nM.

Consider `CC(C)CN(CC(O)C(Cc1ccc(OCc2ccccc2-c2sc3c(c2C(=O)O)CC(C)(C)CC3)cc1)NC(=O)OC1COC2(C)OCCC12)S(=O)(=O)c1ccc2nc(NC3CCN(C4CCCC4)CC3)sc2c1` (stereo not shown) [Compound I-792], for which the IC50 came out at 25 nM.

In turn, `CC(C)CN(CC(O)C(Cc1ccc(OCc2ccccc2-c2sc3c(c2C(=O)O)CC(C)(C)CC3)cc1)NC(=O)OC1COC2(C)OCCC12)S(=O)(=O)c1ccc2nc(N(C)CCc3ccccc3)sc2c1` (stereo not shown) [Compound I-794] gave a 50% inhibitory concentration (IC50) of 38.4 nM.

For the molecule `Cc1cc(OCCNc2nc3ccc(S(=O)(=O)N(CC(C)C)CC(O)C(Cc4ccccc4)NC(=O)OC4COC5(C)OCCC45)cc3s2)ccc1-c1sc2c(c1C(=O)O)CC(C)(C)CC2` (stereo not shown) [Compound I-797], 0.85 nM corresponded to half-maximal inhibition (IC50).

On to `COc1ccc(S(=O)(=O)N(CC(C)C)CC(O)C(Cc2ccc(OCCn3nc(C)c(-c4sc5c(c4C(=O)O)CC(C)(C)CC5)c3C)cc2)NC(=O)OC2COC3OCCC23)cc1` (stereo not shown) [Compound I-810], for which the half-maximal inhibitory concentration (IC50) turned out to be 1.03 nM.

`COc1ccc(S(=O)(=O)N(CC(C)C)CC(O)C(Cc2ccc(COc3ccc4c(c3C(=O)O)CC(C)(C)CC4)cc2)NC(=O)OC2COC3OCCC23)cc1` (stereo not shown) [Compound I-811] came in with an IC50 of 0.81 nM.

`CC(C)CN(CC(O)C(Cc1ccc(OCc2ccc(-c3ccc(F)cc3F)cc2O)cc1)NC(=O)OC1COC2OCCC12)S(=O)(=O)c1ccc2ncsc2c1` (stereo not shown) [Compound I-813] gave an IC50 of 1.06 nM.

For the molecule `CC(C)CN(CC(O)C(Cc1ccc(OCCOc2ccc(-c3ccc(F)cc3F)cc2C(=O)O)cc1)NC(=O)OC1COC2OCCC12)S(=O)(=O)c1ccc2ncsc2c1` (stereo not shown) [Compound I-814], the concentration for half-maximal inhibition (IC50) was determined as 0.75 nM.

On to `COc1ccc(S(=O)(=O)N(CC(C)C)CC(O)C(Cc2ccc(OCc3ccccc3-c3sc4c(c3-c3noc(=O)[nH]3)CC(C)(C)CC4)cc2)NC(=O)OC2COC3OCCC23)cc1` (stereo not shown) [Compound I-815], for which the IC50 stood at 1.63 nM.

For the molecule `CC(C)CN(CC(O)C(Cc1ccccc1)NC(=O)OC1COC2OCCC12)S(=O)(=O)c1ccc(NCc2sc3c(c2C(=O)O)CC(C)(C)CC3)cc1` (stereo not shown) [Compound I-816], the IC50 is 5.78 nM.

`COc1ccc(S(=O)(=O)N(CC(C)C)CC(O)C(Cc2ccc(CNC(=O)c3cc(-c4ccc(F)cc4F)ccc3O)cc2)NC(=O)OC2COC3OCCC23)cc1` (stereo not shown) [Compound I-817]: the IC50 came out at 1.56 nM.

Molecule `CC(C)CN(CC(O)C(Cc1ccc(OCc2sc(Oc3ccccc3)nc2C(=O)O)cc1)NC(=O)OC1COC2OCCC12)S(=O)(=O)c1ccc2ncsc2c1` (stereo not shown) [Compound I-818] yielded an IC50 of 0.64 nM.

The values above are taken from patent US20170253607A1, “LONG-ACTING HIV PROTEASE INHIBITOR” (Shionogi & Co., Ltd., priority 2014, published 2017).
